Assay results: publication PMC6099540 (2018)

Tested on: c-KIT 1 (DNA, G4) AGGGAGGGCGCTGGGAGGAGGG
Assay: CD melting at 265 nm
Settings: 10 mM KCl, 90 mM LiCl; 10 mM Tris-HCl, pH 7.2; 2 µM DNA, 3 eq ligand; 1 °C/min

SMILES | ΔTm
CC[n+]1c(/C=C/c2ccc3c(c2)c2ccccc2n3CCCCn2ccnc2)sc2ccccc21 | 8.4 °C
CC[n+]1c(/C=C/c2ccc3c(c2)c2ccccc2n3CCCCn2cncn2)sc2ccccc21 | 5.4 °C
CCn1c2ccccc2c2cc(/C=C/c3sc4ccccc4[n+]3CC)ccc21 | 5.9 °C
